Columns and labels:
[1] = test system: barnyardgrass (Echinochloa crus-galli); assay: Test A preemergence, visual injury rating 0-100 (0 no effect, 100 complete control); assay type: in vivo
[2] = test system: galium (catchweed bedstraw, Galium aparine); assay: Test A postemergence, visual injury rating 0-100; assay type: in vivo; conditions: 0 to 100 scale
corn (Zea mays) = assay: Test A postemergence, visual injury rating 0-100; assay type: in vivo; conditions: 0 to 100 scale
[3] = test system: foxtail, giant (giant foxtail, Setaria faberii); assay: Test A postemergence, visual injury rating 0-100; assay type: in vivo; conditions: 0 to 100 scale
[4] = test system: barnyardgrass (Echinochloa crus-galli); assay: Test A postemergence, visual injury rating 0-100; assay type: in vivo; conditions: 0 to 100 scale
kochia (Kochia scoparia) [5] = assay: Test A postemergence, visual injury rating 0-100; assay type: in vivo; conditions: 0 to 100 scale
[6] = test system: pigweed (Amaranthus retroflexus); assay: Test A postemergence, visual injury rating 0-100; assay type: in vivo; conditions: 0 to 100 scale
[7] = test system: ryegrass, Italian (Italian ryegrass, Lolium multiflorum); assay: Test A postemergence, visual injury rating 0-100; assay type: in vivo; conditions: 0 to 100 scale
[8] = test system: ragweed (common ragweed, Ambrosia elatior); assay: Test A postemergence, visual injury rating 0-100; assay type: in vivo; conditions: 0 to 100 scale
[9] = test system: blackgrass (Alopecurus myosuroides); assay: Test A postemergence, visual injury rating 0-100; assay type: in vivo; conditions: 0 to 100 scale
[10] = test system: wheat (Triticum aestivum); assay: Test A postemergence, visual injury rating 0-100; assay type: in vivo; conditions: 0 to 100 scale
[11] = test system: foxtail, giant (giant foxtail, Setaria faberii); assay: Test A preemergence, visual injury rating 0-100; assay type: in vivo
kochia (Kochia scoparia) [12] = assay: Test A preemergence, visual injury rating 0-100; assay type: in vivo
[13] = test system: pigweed (Amaranthus retroflexus); assay: Test A preemergence, visual injury rating 0-100; assay type: in vivo
[14] = test system: ryegrass, Italian (Italian ryegrass, Lolium multiflorum); assay: Test A preemergence, visual injury rating 0-100; assay type: in vivo
[15] = test system: ragweed (common ragweed, Ambrosia elatior); assay: Test A preemergence, visual injury rating 0-100; assay type: in vivo
[16] = test system: barnyardgrass (Echinochloa crus-galli); assay: Test B flooded paddy test, visual rating 0-100; conditions: Flood, 250 g ai/ha, applied to paddy water, rated after 13 to 15 days
[17] = test system: ducksalad (Heteranthera limosa); assay: Test B flooded paddy test, visual rating 0-100; conditions: Flood, 250 g ai/ha, applied to paddy water, rated after 13 to 15 days
rice (Oryza sativa) = assay: Test B flooded paddy test, visual rating 0-100 (0 no effect, 100 complete control); conditions: Flood, 250 g ai/ha, applied to paddy water, rated after 13 to 15 days

| Compound | Barnyardgrass plant response rating (0 to 100 scale) ([1]; 125 g ai/ha) | Barnyardgrass plant response rating (0 to 100 scale) ([1]; 500 g ai/ha) | Galium plant response rating ([2]; 125 g ai/ha) | Galium plant response rating ([2]; 500 g ai/ha) | Corn plant response rating (corn (Zea mays); 125 g ai/ha) | Corn plant response rating (corn (Zea mays); 500 g ai/ha) | Foxtail, Giant plant response rating ([3]; 125 g ai/ha) | Foxtail, Giant plant response rating ([3]; 500 g ai/ha) | Barnyardgrass plant response rating ([4]; 125 g ai/ha) | Barnyardgrass plant response rating ([4]; 500 g ai/ha) | Kochia plant response rating (kochia (Kochia scoparia) [5]; 125 g ai/ha) | Kochia plant response rating (kochia (Kochia scoparia) [5]; 500 g ai/ha) | Pigweed plant response rating ([6]; 125 g ai/ha) | Pigweed plant response rating ([6]; 500 g ai/ha) | Ryegrass, Italian plant response rating ([7]; 125 g ai/ha) | Ryegrass, Italian plant response rating ([7]; 500 g ai/ha) | Ragweed plant response rating ([8]; 125 g ai/ha) | Ragweed plant response rating ([8]; 500 g ai/ha) | Blackgrass plant response rating ([9]; 125 g ai/ha) | Blackgrass plant response rating ([9]; 500 g ai/ha) | further results |
| --- | --- | --- | --- | --- | --- | --- | --- | --- | --- | --- | --- | --- | --- | --- | --- | --- | --- | --- | --- | --- | --- |
| CC1=[N+]([O-])C(C(=O)Nc2cccc(F)c2F)C(c2cccc(F)c2C)C1 (racemic) [Compound 78] | 90 | 90 | 60 | 60 | 0 | 50 | 80 | 90 | 70 | 80 | 20 | 50 | 0 | 20 | 10 | 50 | 0 | 60 | 50 | 70 | Wheat plant response rating ([10]; 125 g ai/ha): 40; Wheat plant response rating ([10]; 500 g ai/ha): 60; Foxtail, Giant plant response rating (0 to 100 scale) ([11]; 125 g ai/ha): 90; Foxtail, Giant plant response rating (0 to 100 scale) ([11]; 500 g ai/ha): 90; Kochia plant response rating (0 to 100 scale) (kochia (Kochia scoparia) [12]; 125 g ai/ha): 10; Kochia plant response rating (0 to 100 scale) (kochia (Kochia scoparia) [12]; 500 g ai/ha): 60; Pigweed plant response rating (0 to 100 scale) ([13]; 125 g ai/ha): 0; Pigweed plant response rating (0 to 100 scale) ([13]; 500 g ai/ha): 80; Ryegrass, Italian plant response rating (0 to 100 scale) ([14]; 125 g ai/ha): 30; Ryegrass, Italian plant response rating (0 to 100 scale) ([14]; 500 g ai/ha): 70; Ragweed plant response rating (0 to 100 scale) ([15]; 125 g ai/ha): 20; Ragweed plant response rating (0 to 100 scale) ([15]; 500 g ai/ha): 70; Barnyardgrass plant response rating (0 to 100 scale) [16]: 75; Ducksalad plant response rating (0 to 100 scale) [17]: 100; Rice plant response rating (0 to 100 scale) (rice (Oryza sativa)): 0 |
| CC1=[N+]([O-])C(C(=O)Nc2cccc(F)c2F)C(c2cc(C)ccc2C)C1 (racemic) [Compound 79] | 90 | 90 | 20 | 30 | 20 | 70 | 70 | 90 | 70 | 80 | 0 | 0 | 0 | 0 | 0 | 50 | 30 | 30 | 20 | 70 | Wheat plant response rating ([10]; 125 g ai/ha): 20; Wheat plant response rating ([10]; 500 g ai/ha): 70; Foxtail, Giant plant response rating (0 to 100 scale) ([11]; 125 g ai/ha): 80; Foxtail, Giant plant response rating (0 to 100 scale) ([11]; 500 g ai/ha): 90; Kochia plant response rating (0 to 100 scale) (kochia (Kochia scoparia) [12]; 125 g ai/ha): 0; Kochia plant response rating (0 to 100 scale) (kochia (Kochia scoparia) [12]; 500 g ai/ha): 20; Pigweed plant response rating (0 to 100 scale) ([13]; 125 g ai/ha): 0; Pigweed plant response rating (0 to 100 scale) ([13]; 500 g ai/ha): 0; Ryegrass, Italian plant response rating (0 to 100 scale) ([14]; 125 g ai/ha): 30; Ryegrass, Italian plant response rating (0 to 100 scale) ([14]; 500 g ai/ha): 50; Ragweed plant response rating (0 to 100 scale) ([15]; 125 g ai/ha): 0; Ragweed plant response rating (0 to 100 scale) ([15]; 500 g ai/ha): 0; Barnyardgrass plant response rating (0 to 100 scale) [16]: 60; Ducksalad plant response rating (0 to 100 scale) [17]: 100; Rice plant response rating (0 to 100 scale) (rice (Oryza sativa)): 0 |
| CC1=[N+]([O-])C(C(=O)Nc2cccc(F)c2F)C(c2cc(F)ccc2C)C1 (racemic) [Compound 81] | 90 | 90 | 0 | 30 | 20 | 20 | 60 | 80 | 80 | 80 | 0 | 0 | 0 | 0 | 0 | 20 | 0 | 0 | 0 | 50 | Wheat plant response rating ([10]; 125 g ai/ha): 0; Wheat plant response rating ([10]; 500 g ai/ha): 30; Foxtail, Giant plant response rating (0 to 100 scale) ([11]; 125 g ai/ha): 60; Foxtail, Giant plant response rating (0 to 100 scale) ([11]; 500 g ai/ha): 90; Kochia plant response rating (0 to 100 scale) (kochia (Kochia scoparia) [12]; 125 g ai/ha): 0; Kochia plant response rating (0 to 100 scale) (kochia (Kochia scoparia) [12]; 500 g ai/ha): 50; Pigweed plant response rating (0 to 100 scale) ([13]; 125 g ai/ha): 0; Pigweed plant response rating (0 to 100 scale) ([13]; 500 g ai/ha): 20; Ryegrass, Italian plant response rating (0 to 100 scale) ([14]; 125 g ai/ha): 0; Ryegrass, Italian plant response rating (0 to 100 scale) ([14]; 500 g ai/ha): 10; Ragweed plant response rating (0 to 100 scale) ([15]; 125 g ai/ha): 0; Ragweed plant response rating (0 to 100 scale) ([15]; 500 g ai/ha): 0; Barnyardgrass plant response rating (0 to 100 scale) [16]: 25; Ducksalad plant response rating (0 to 100 scale) [17]: 100; Rice plant response rating (0 to 100 scale) (rice (Oryza sativa)): 0 |
| CC1=[N+]([O-])C(C(=O)Nc2cccc(F)c2F)C(c2cc(C)nc(OC(F)F)c2)C1 (racemic) [Compound 83] | 90 | 90 | 60 | 70 | 70 | 90 | 80 | 90 | 80 | 90 | 30 | 50 | 30 | 80 | 60 | 80 | 30 | 70 | 70 | 80 | Wheat plant response rating ([10]; 125 g ai/ha): 60; Wheat plant response rating ([10]; 500 g ai/ha): 80; Foxtail, Giant plant response rating (0 to 100 scale) ([11]; 125 g ai/ha): 90; Foxtail, Giant plant response rating (0 to 100 scale) ([11]; 500 g ai/ha): 90; Kochia plant response rating (0 to 100 scale) (kochia (Kochia scoparia) [12]; 125 g ai/ha): 0; Kochia plant response rating (0 to 100 scale) (kochia (Kochia scoparia) [12]; 500 g ai/ha): 50; Pigweed plant response rating (0 to 100 scale) ([13]; 125 g ai/ha): 60; Pigweed plant response rating (0 to 100 scale) ([13]; 500 g ai/ha): 90; Ryegrass, Italian plant response rating (0 to 100 scale) ([14]; 125 g ai/ha): 70; Ryegrass, Italian plant response rating (0 to 100 scale) ([14]; 500 g ai/ha): 90; Ragweed plant response rating (0 to 100 scale) ([15]; 125 g ai/ha): 10; Ragweed plant response rating (0 to 100 scale) ([15]; 500 g ai/ha): 90; Barnyardgrass plant response rating (0 to 100 scale) [16]: 80; Ducksalad plant response rating (0 to 100 scale) [17]: 75; Rice plant response rating (0 to 100 scale) (rice (Oryza sativa)): 0 |
| CC1=[N+]([O-])C(C(=O)Nc2cccc(F)c2F)C(c2cc(F)c(F)c(Oc3ncc(F)cn3)c2)C1 (racemic) [Compound 85] | 80 | 100 | 20 | 30 | 60 | 90 | 60 | 80 | 40 | 80 | 0 | 0 | 0 | 0 | 0 | 60 | 0 | 0 | 60 | 80 | Wheat plant response rating ([10]; 125 g ai/ha): 50; Wheat plant response rating ([10]; 500 g ai/ha): 90; Foxtail, Giant plant response rating (0 to 100 scale) ([11]; 125 g ai/ha): 80; Foxtail, Giant plant response rating (0 to 100 scale) ([11]; 500 g ai/ha): 100; Kochia plant response rating (0 to 100 scale) (kochia (Kochia scoparia) [12]; 125 g ai/ha): 0; Kochia plant response rating (0 to 100 scale) (kochia (Kochia scoparia) [12]; 500 g ai/ha): 10; Pigweed plant response rating (0 to 100 scale) ([13]; 125 g ai/ha): 50; Pigweed plant response rating (0 to 100 scale) ([13]; 500 g ai/ha): 0; Ryegrass, Italian plant response rating (0 to 100 scale) ([14]; 125 g ai/ha): 60; Ryegrass, Italian plant response rating (0 to 100 scale) ([14]; 500 g ai/ha): 90; Ragweed plant response rating (0 to 100 scale) ([15]; 125 g ai/ha): 0; Ragweed plant response rating (0 to 100 scale) ([15]; 500 g ai/ha): 0; Barnyardgrass plant response rating (0 to 100 scale) [16]: 0; Ducksalad plant response rating (0 to 100 scale) [17]: 0; Rice plant response rating (0 to 100 scale) (rice (Oryza sativa)): 0 |

Source: patent publication US11498899B2, “Nitrone herbicides” (FMC Corporation, priority 2016, dated 2022)
